Source: US7863274B2, “Deuterium enriched analogues of tadalafil as PDE5 inhibitors” (Concert Pharmaceuticals Inc., priority 2005, dated 2011)

Tests used:
[1] = humans, cited from earlier work
[2] = test system: spontaneously hypertensive rats; assay: Hypotensive effects in the spontaneous hypertensive rat model (Cerep); assay type: in vivo; conditions: oral administration, 10 mg/kg, 8 rats per group, over 8 h
Protocol: Hypotensive effects in the spontaneous hypertensive rat model. Effects of the products of examples 7, 9, 12, 18, 27 and 30 are tested by oral administration to spontaneously hypertensive rats at Cerep, using essentially the procedure of Bazil M K et. al., J. Cardiovasc. Pharmacol. 1993 22: 897 and a sample size of 8 rats per group.

CN1CC(=O)N2[C@H](c3ccc4c(c3)OCO4)c3[nH]c4ccccc4c3C[C@@H]2C1=O [Compound 1, (6R,12aR)-6-(1,3-benzodioxol-5-yl)-2-methyl-1,2,3,4,6,7,12,12a-octahydropyrazino[1′,2′:1,6]pyrido[3,4-b]indole-1,4-dione]
half-life and exposure (AUC) when dosed concurrently with CYP3A4 inhibitors ([1]; co-dosing with inhibitors of CYP3A4): clinically meaningful increases | absorption following oral administration ([1]; oral): well absorbed | amount excreted unchanged ([1]; oral): only a minor amount

[2H]C([2H])([2H])N1CC(=O)N2[C@H](c3ccc4c(c3)OC(F)(F)O4)c3[nH]c4ccccc4c3C[C@@H]2C1=O [Example 7, (6R,12aR)-6-(2,2-Difluorobenzo[d]-1,3-dioxol-5-yl)-1,2,3,4,6,7,12,12a-octahydropyrazino[1′,2′:1,6]pyrido[3,4-b]indole-2-trideuteromethyl-1,4-dione]
reduction in blood pressure [2]: significant reductions in blood pressure sustained over 8 h

[2H]C1([2H])Oc2ccc([C@@H]3c4[nH]c5ccccc5c4C[C@@H]4C(=O)N(C)CC(=O)N34)cc2O1 [Example 27, (6R,12aR)-6-(2,2-dideuterobenzo[d]-1,3-dioxol-5-yl)-2-methyl-1,2,3,4,6,7,12,12a-octahydropyrazino[1′,2′:1,6]pyrido[3,4-b]indole-1,4-dione]
reduction in blood pressure [2]: significant reductions in blood pressure sustained over 8 h

[2H][C@@]1(c2ccc3c(c2)OC(F)(F)O3)c2[nH]c3ccccc3c2C[C@@H]2C(=O)N(C)CC(=O)N21 [Example 12, (6R,12aR)-6-Deutero-6-(2,2-difluorobenzo[d]-1,3-dioxol-5-yl)2-methyl-1,2,3,4,6,7,12,12a-octahydropyrazino[1′,2′:1,6]pyrido[3,4-b]indole-1,4-dione]
reduction in blood pressure [2]: significant reductions in blood pressure sustained over 8 h

CN1CC(=O)N2[C@H](c3ccc4c(c3)OC(F)(F)O4)c3[nH]c4ccccc4c3C[C@@H]2C1=O [Example 18, (6R,12aR)-6-(2,2-Difluorobenzo[d]-1,3-dioxol-5-yl)-1,2,3,4,6,7,12,12a-octahydropyrazino[1′,2′:1,6]pyrido[3,4-b]indole-2-methyl-1,4-dione]
reduction in blood pressure [2]: significant reductions in blood pressure sustained over 8 h

[2H]c1cc2c(cc1[C@@H]1c3[nH]c4ccccc4c3C[C@@H]3C(=O)N(C)CC(=O)N13)OC(F)(F)O2 [Example 9, (6R,12aR)-6-(6-Deutero-2,2-difluorobenzo[d]-1,3-dioxol-5-yl)-2-methyl-1,2,3,4,6,7,12,12a-octahydropyrazino[1′,2′:1,6]pyrido[3,4-b]indole-1,4-dione]
reduction in blood pressure [2]: significant reductions in blood pressure sustained over 8 h

[2H]C1([2H])Oc2ccc([C@@H]3c4[nH]c5ccccc5c4C[C@@H]4C(=O)N(C([2H])([2H])[2H])CC(=O)N34)cc2O1 [Example 30, (6R,12aR)-6-(2,2-dideuterobenzo[d]-1,3-dioxol-5-yl)-1,2,3,4,6,7,12,12a-octahydropyrazino[1′,2′:1,6]pyrido[3,4-b]indole-2-trideuteromethyl-1,4-dione]
reduction in blood pressure [2]: significant reductions in blood pressure sustained over 8 h
